Measured values as given in patent US11655239B2 (SHANGHAI INSTITUTE OF MATERIAL MEDICA, CHINESE ACADEMY OF …, priority 2019, dated 2023).

Tests used:
[1] = test system: DDR2; assay: Phosphorylation level of DDR2 (Western Blot); format: cell-based, human; conditions: MRC-5, TGF-β1 treatment
Description: 1) Preparation of cell protein samples: the cell culture liquid was discarded, wash was performed once with PBS, and samples were collected by adding 1×SDS-Loading. after the samples were collected, they were placed in a metal bath at 100° C., and the samples were boiled for 10 minutes, and then the samples were stored at 4° C. for waiting for subsequent test.
2) Gel preparation and sample loading: according to the molecular weight of the detected protein, different concentrations of separation gel were selected. after filling the 1× electrophoresis buffer, an equal volume of protein sample 4 μl and protein marker were added on the far left to right in sequence.
When the sample was in the concentrated gel, the voltage was set to 80 V; when the sample was electrophoresed to the separation gel, the voltage was increased to 120 V until the bromophenol blue was electrophoresed to reach the bottom of the gel, and the electrophoresis ended. […]
8) Secondary antibodies: the film with the primary antibodies was rewarmed and incubated for about half an hour, and then the primary antibodies were recovered and the film was washed quickly with TBST solution 3 times, 10 minutes each time. […] The dilution ratio of the secondary antibody dedicated for DDR2 was 1:5000; The dilution ratio for the rest of the secondary antibodies were 1:8000, ready for use. […]

[2] = test system: mouse model of BLM-induced lung injury; assay: Total number of cells and protein concentration in BALF; format: in vivo; conditions: mice; 30, 60, 90 mg/kg oral qd
Description: 1. The determination of the total number of cells in BALF. The collected BALF was centrifuged at 1000 rpm at 4° C. for 10 minutes, and 25× Cocktail was added to the supernatant and stored at −80° C. for protein concentration detection and subsequent cytokine determination. The cell pellet was resuspend in 50 μL of saline. The total number of cells in BALF was determined with a cell counting instrument.
2. Determination of protein concentration. In the experiment, the BCA protein concentration determination kit (Beyotime) was used to determine the concentration of total protein in BALF. The experimental steps are as follows:
a. 0.8 ml protein standard formulation solution was added to a tube of protein standard (20 mg BSA), dissolved and mixed thoroughly to prepare a protein standard solution at 25 mg/ml. After preparation, the protein standard solution can be used immediately and stored at −20° C.
b. An appropriate amount of 25 mg/ml of protein standard solution was taken and diluted to the target concentration of 0.5 mg/ml. Note that the protein sample and the standard should be diluted with the same solution, or the standard can be diluted with 0.9% NaCl or PBS. […]
d. The absorbance in the wavelength range of 540-595 nm was measured or a microplate reader was used to measure A562.
e. The protein concentration in the sample was calculated according to the sample volume used and standard curve.

## O=C(Nc1cccc(C(F)(F)F)c1)c1ccc(C2CC2)c(-c2ccc3nc(Nc4cnn(C5CC5)c4)ncc3c2)c1 [Compound S15, 4-cyclopropyl-3-(2-((1-cyclopropyl-1H-pyrazol-4-yl)amino)quinazolin-6-yl)-N-(3-(trifluoromethyl)phenyl)benzamide]
[1]
  phosphorylation level of DDR2: effectively inhibit the phosphorylation level of DDR2
[2]
  protein concentration in BALF: reduce the number of inflammatory cells and the concentration of related proteins in a dose-dependent manner
  total number of inflammatory cells in BALF: reduce the number of inflammatory cells and the concentration of related proteins in a dose-dependent manner
